The values that follow are results of earlier work, collected in article PMC2866165 (Nuclear medicine and biology, 2010).

One series has as its system PDE4D. The note with it: read-out: IC50 for PDE4D.
In the next series the test system is PDE3A. As to conditions: read-out: IC50 for PDE3A.

As usually defined, the IC50 is the concentration needed to halve the response being measured. Consider `COc1ccc(Cc2nccc3cc(OC)c(OC)cc23)cc1OC` [Papaverine, 1-(3,4-dimethoxybenzyl)-6,7-dimethoxyisoquinoline], for which the “Biological half-life in rat plasma” value is 15 min. In addition, the IC50 with PDE4D was 320 nM. Besides, in the series on PDE3A, the concentration for half-maximal inhibition (IC50) is 1300 nM.
